Experimental data as given in US7166435B2 (priority 2001, dated 2007).
“Also recorded” adds a separate entry of the source. Read-outs that look alike come from different tables or passages of the source.

Key:
Influenza A/Moscow/10/99 = assay type: cell-based; details: Citrate Buffer control
[1] = tested on: Influenza B/Guangdong/120/00; assay type: cell-based; details: Citrate Buffer control
influenza virus = assay type: in vivo, ferret; details: for Mean Difference (I−J), Weight Change separated into pens: pairwise comparison
[2] = recipient ferrets, 8 per group, >2SD rise in temperature

**Q.** With `O=C(O)CC(O)(CC(=O)O)C(=O)O` [Citrate Buffer] as the compound, how does the A/Moscow log reductions (Influenza A/Moscow/10/99; 1 minute incubation) read?
**A.** 1.00 −log10 TCID50

**Q.** And the “Residual A/Moscow titer” value (Influenza A/Moscow/10/99; 1 minute incubation)?
**A.** 1.80 −log10 TCID50

**Q.** And the A/Moscow log reductions (Influenza A/Moscow/10/99; 2 minute incubation)?
**A.** 1.00 −log10 TCID50

**Q.** What about the “Residual A/Moscow titer” value (Influenza A/Moscow/10/99; 2 minute incubation) of the same compound?
**A.** 1.80 −log10 TCID50

**Q.** And the A/Moscow log reductions (Influenza A/Moscow/10/99; 5 minute incubation)?
**A.** 2.80 −log10 TCID50

**Q.** What about the “Residual A/Moscow titer” value (Influenza A/Moscow/10/99; 5 minute incubation) of the same compound?
**A.** 0.00 −log10 TCID50

**Q.** And the B/Guangdong log reductions ([1]; 1 minute incubation)?
**A.** 1.80 −log10 TCID50

**Q.** What about the “Residual B/Guangdong titer” value ([1]; 1 minute incubation) of the same compound?
**A.** 0.00 −log10 TCID50

**Q.** What about the B/Guangdong log reductions ([1]; 2 minute incubation) of the same compound?
**A.** 1.80 −log10 TCID50

**Q.** And the “Residual B/Guangdong titer” value ([1]; 2 minute incubation)?
**A.** 0.00 −log10 TCID50

**Q.** And the B/Guangdong log reductions ([1]; 5 minute incubation)?
**A.** 1.80 −log10 TCID50

**Q.** What about the “Residual B/Guangdong titer” value ([1]; 5 minute incubation) of the same compound?
**A.** 0.00 −log10 TCID50

**Q.** Which results are given for `CCOC(=O)C1=C[C@@H](OC(CC)CC)[C@H](NC(C)=O)[C@@H](N)C1` [Tamiflu]?
**A.** Mean Difference (I−J), Weight Change separated into pens (influenza virus; (I) treatment group minus (J) 25% horseradish): .161; Mean Difference (I−J), Weight Change separated into pens (influenza virus; (I) treatment group minus (J) 50% horseradish): .497; Mean Difference (I−J), Weight Change separated into pens (influenza virus; (I) treatment group minus (J) 100% Horseradish): .251; Mean Difference (I−J), Weight Change separated into pens (influenza virus; (I) treatment group minus (J) PBS, recipient ferrets): −1.880

**Q.** With `CCOC(=O)C1=C[C@@H](OC(CC)CC)[C@H](NC(C)=O)[C@@H](N)C1` [Tamiflu ™, oseltamivir phosphate] as the compound, how does the “No. of Ferrets per pen with Fever (>2SD rise), mild febrile illness” value (influenza virus; four recipient ferrets per pen, pens a and b) read?
**A.** 2

**Q.** What about the “X^2 analysis of fever (2SD rise), p PBS versus treatment” value (influenza virus; in vivo) of the same compound?
**A.** 0.106

**Q.** What about the “X^2 analysis of fever (3SD rise), p PBS versus treatment” value (influenza virus; in vivo) of the same compound?
**A.** 0.106

**Q.** And the “seroconversion of recipient ferrets” value (influenza virus; in vivo)?
**A.** did not seroconvert; also recorded: no seroconversion

**Q.** What about the “Mean Difference (I−J), Weight Change separated into pens” value (influenza virus; (I) group PBS minus (J) treatment group, recipient ferrets, weight loss peak to trough as percentage of day 0 baseline weight) of the same compound?
**A.** −1.880

**Q.** What about the “weight loss, p PBS versus treatment” value (influenza virus; recipient ferrets) of the same compound?
**A.** 0.003

**Q.** What about the “% within Group No., Fever => 2SD rise from baseline: No” value (influenza virus; [2]) of the same compound?
**A.** 50%

**Q.** What about the “% within Group No., Fever => 2SD rise from baseline: yes” value (influenza virus; [2]) of the same compound?
**A.** 50%

**Q.** What about the “Count of ferrets, Fever => 2SD rise from baseline: No” value (influenza virus; [2]) of the same compound?
**A.** 4

**Q.** What about the “Count of ferrets, Fever => 2SD rise from baseline: yes” value (influenza virus; [2]) of the same compound?
**A.** 4

**Q.** And the “Weight Change separated into pens, Mean” value (influenza virus; recipient ferrets, peak to trough as a percentage of the baseline weight on day 0)?
**A.** −.980%

**Q.** And the “No. of ferrets per group with Fever (>2SD rise), mild febrile illness” value (influenza virus; two pens per group)?
**A.** 4

**Q.** And the “No. of ferrets per group with Fever (>3SD rise)” value (influenza virus; two pens per group)?
**A.** 1
